{
  "source": "patent US20250183494A1",
  "about": "“Standardized Bioflavonoid Composition for Regulation of Homeostasis of Host Defense Mechanism” (priority 2021, published 2025)",
  "key": {"[1]": {"tested_on": "TNF-α", "test": "LPS-induced acute lung injury, serum TNF-α ELISA", "type": "in vivo, Sprague Dawley rats", "conditions": "UP446 250 mg/kg, SB 500 mg/kg", "method": "The presence of TNF-α in undiluted rat serum was measured using the rat TNF-α Quantikine ELISA kit from RandD Systems (product #: RTA00) as follows: undiluted serum was added to a microplate coated with TNF-α antibody. […] The washing was repeated, and enzyme substrate was added to the plate."}, "[2]": {"tested_on": "LPS-induced sepsis", "test": "LPS-induced sepsis model, composition vs constituents, Colby synergy", "type": "in vivo, CD-1 mice", "method": "On the 8th day, mice were injected intraperitoneally (i.p.) with 25 mg/kg LPS dissolved in PBS at 10 mL/kg. Mice in the UP894-II-treated group received a daily dose of UP894-II at 250 mg/kg. All mice continued to receive the treatment daily for the duration of study, which was completed on the 6th day post LPS injection. Following a median lethal dose of LPS (25 mg/kg) by i.p. administration, animals are expected to develop sepsis within a few hours. If untreated, mice would start to die within 24 hours. Animals were observed hourly. In the current study, we monitored the mice for 6 days after LPS injection.\nFor the blending of these plant extracts to have unexpected synergy, the observed inhibition needs to be greater than the calculated value.\nThe LPS-induced survival study was utilized to evaluate possible synergy or unexpected effects of extracts from Scutellaria and Acacia, when formulated together in a specific ratio, using Colby's method."}, "[3]": {"tested_on": "LPS-induced acute lung injury", "test": "LPS-induced acute lung injury, lung histopathology (H&E)", "type": "in vivo, Sprague Dawley rats", "conditions": "UP446 high dose 250 mg/kg, Sodium Butyrate 500 mg/kg", "method": "The severity of lung damage as a result of intratracheal LPS was assessed using HandE-stained lung tissue. The left lobe of the lung was used for the histopathology analysis."}, "[4]": {"tested_on": "LPS-induced endotoxemia and sepsis", "test": "LPS-induced sepsis model, survival (UP446 study)", "type": "in vivo, CD-1 mice", "excerpt": "This model used survival rate of animals as the end point measurement (Wang et al., 1999). Lipopolysaccharide (LPS) is an integral component of the outer membrane of gram-negative bacteria and a major contributing factor in the initiation of a generalized inflammatory process that may lead to endotoxin shock. It is a state mediated principally by macrophages/monocytes and is attributed to excessive production of several early phase cytokines such as TNF-α, IL-1, IL-6 and gamma interferon (IFN-γ) as well as a late-stage mediator, HMGB1. Following a median lethal dose of LPS (25 mg/kg) administration dissolved in phosphate-buffered saline (PBS; Lifeline, Lot #07641), animals develop endotoxemia and HMGB1 would be detected in the serum at 8 hours and reach to a peak and plateau levels from 16 to 32 hours after LPS. If untreated, mice would start to die within 24 hours. In the current study, we monitored the mice for 4 days after LPS injection. […] The following groups were included in the study:\nIn this model, mice were pretreated with bioflavonoid composition—UP446, illustrated in the Example 4, for a week (7 days) before lethal dose intraperitoneal injection of LPS (E. coli, 055:B5; Sigma, St. Louis, MO; Lot #081275) at 25 mg/kg with a 10 mL/kg PBS volume. Animals were observed hourly. Given the fact that sodium butyrate improved LPS-induced injury in mice through suppression of HMGB1 release, we chose this compound as a positive control for our study (Li et al., 2018)."}, "[5]": {"tested_on": "IL-1β", "test": "LPS-induced acute lung injury, serum IL-1β ELISA", "type": "in vivo, Sprague Dawley rats", "conditions": "UP446 250 mg/kg, SB 500 mg/kg", "method": "The presence of IL-1β in undiluted rat serum was measured using the Rat IL-1β Quantikine ELISA kit from RandD Systems (product #: RLB00) as follows: undiluted serum was added to a microplate coated with IL-1β antibody. […] The washing was repeated, and enzyme substrate was added to the plate."}, "[6]": {"conditions": "SB 500, UP894-II 250, RM405 200, RM406 50 mg/kg"}, "[7]": {"conditions": "SB 500, UP894-II 250, RM405 200, RM406 50 mg/kg, listed as SB"}, "[8]": {"conditions": "per interval, SB 500, UP894-II 250, RM405 200, RM406 50 mg/kg oral, N=13"}, "[9]": {"conditions": "cumulative, LPS 25 mg/kg i.p., UP446 250, Sodium Butyrate 500 mg/kg oral, N=8"}},
  "note": "“And” between values parts separate entries of the source, which are not always exact repeats. Identical values can stand only once.",
  "data": [
    {"smiles": "CCCC(=O)[O-].[Na+]", "note": "[Sodium Butyrate]", "values": [
      {"measurement": "Reduction in serum TNF-α level vs vehicle control", "setting": "[1]", "value": 67.9, "unit": "%"},
      {"measurement": "Mortality rate, 0 hr", "setting": "[2]; [6]", "value": 0.00, "unit": "%"},
      {"measurement": "Mortality rate, 24 hr post LPS", "setting": "[2]; [6]", "value": 15.38, "unit": "%"},
      {"measurement": "Mortality rate, 36 hr post LPS", "setting": "[2]; [6]", "value": 46.15, "unit": "%"},
      {"measurement": "Mortality rate, 48 hr post LPS", "setting": "[2]; [6]", "value": 53.85, "unit": "%"},
      {"measurement": "Mortality rate, 60 hr post LPS", "setting": "[2]; [6]", "value": 61.54, "unit": "%"},
      {"measurement": "Mortality rate, 72 hr post LPS", "setting": "[2]; [6]", "value": 61.54, "unit": "%"},
      {"measurement": "Mortality rate, 96 hr post LPS", "setting": "[2]; [6]", "value": 69.23, "unit": "%"},
      {"measurement": "Mortality rate, 120 hr post LPS", "setting": "[2]; [6]", "value": 69.23, "unit": "%"},
      {"measurement": "Mortality rate, 144 hr post LPS (end of observation)", "setting": "[2]; [6]", "value": 69.23, "unit": "%"},
      {"measurement": "Survival rate, 0 hr", "setting": "[2]; [6]", "value": 100.0, "unit": "%"},
      {"measurement": "Survival rate, 24 hr post LPS", "setting": "[2]; [6]", "value": 84.6, "unit": "%"},
      {"measurement": "Survival rate, 48 hr post LPS", "setting": "[2]; [6]", "value": 46.2, "unit": "%"},
      {"measurement": "Survival rate, 60 hr post LPS", "setting": "[2]; [6]", "value": 38.5, "unit": "%"},
      {"measurement": "Survival rate, 96 hr post LPS", "setting": "[2]; [6]", "value": 30.8, "unit": "%"},
      {"measurement": "Survival rate, 120 hr post LPS", "setting": "[2]; [6]", "value": 30.8, "unit": "%"},
      {"measurement": "Survival rate, 144 hr post LPS (end of observation)", "setting": "[2]; [6]", "value": 30.8, "unit": "%"},
      {"measurement": "Survival rate, 36 hr post LPS", "setting": "[2]; [7]", "value": "53.9% and 53.8%"},
      {"measurement": "Survival rate, 72 hr post LPS", "setting": "[2]; [7]", "value": 38.5, "unit": "%"},
      {"measurement": "Number of deceased animals post LPS, 24 hours", "setting": "[2]; [8]", "value": 2},
      {"measurement": "Number of deceased animals post LPS, 36 hours", "setting": "[2]; [8]", "value": 4},
      {"measurement": "Number of deceased animals post LPS, 48 hours", "setting": "[2]; [8]", "value": 1},
      {"measurement": "Number of deceased animals post LPS, 60 hours", "setting": "[2]; [8]", "value": 1},
      {"measurement": "Number of deceased animals post LPS, 72 hours", "setting": "[2]; [8]", "value": 0},
      {"measurement": "Number of deceased animals post LPS, 96 hours", "setting": "[2]; [8]", "value": 1},
      {"measurement": "Number of deceased animals post LPS, 120 hours", "setting": "[2]; [8]", "value": 0},
      {"measurement": "Number of deceased animals post LPS, 144 hours", "setting": "[2]; [8]", "value": 0},
      {"measurement": "Survived", "setting": "[2]; through 144 hours post LPS, N=13", "value": 4},
      {"measurement": "Infiltration of PMN cell, score 0-4", "setting": "[3]", "value": "2.75 ± 0.78"},
      {"measurement": "Overall Lung Damage Severity, score 0-4", "setting": "[3]", "value": "3.05 ± 0.42"},
      {"measurement": "Pulmonary Edema, score 0-4", "setting": "[3]", "value": "2.35 ± 0.95"},
      {"measurement": "Survival rate", "setting": "[4]; 48 hours after LPS injection, UP446 250, SB 500 mg/kg", "value": "half of the animals were deceased"},
      {"measurement": "# of Death after LPS, 24 hr", "setting": "[4]; [9]", "value": 2},
      {"measurement": "# of Death after LPS, 32 hr", "setting": "[4]; [9]", "value": 3},
      {"measurement": "# of Death after LPS, 34 hr", "setting": "[4]; [9]", "value": 3},
      {"measurement": "# of Death after LPS, 48 hr", "setting": "[4]; [9]", "value": 4},
      {"measurement": "# of Death after LPS, 58 hr", "setting": "[4]; [9]", "value": 4},
      {"measurement": "# of Death after LPS, 72 hr", "setting": "[4]; [9]", "value": 4},
      {"measurement": "# of Death after LPS, 82 hr", "setting": "[4]; [9]", "value": 4},
      {"measurement": "Reduction in serum IL-1β level vs vehicle", "setting": "[5]", "value": 65.3, "unit": "%"}
    ]}
  ]
}
